# Measurements reported in US7947696B2, “2-amino-4-phenylquinazoline derivatives and the use thereof as HSP90 modulators” (Merck Patent GmbH, priority 2005, dated 2011).
# Counter-ions that a name gives are not always drawn.
# Target: T1, Recombinant human HSP90α (Homo sapiens, UniProt P07900)
# T1 construct: host or cells: E. coli
# Assay: radioligand filter binding test, competition with [3H]17AAG for HSP90
# Conditions: [3H]17AAG 0.08 μM, HSP90 1.5 μg/assay, 22° C., 30 min, pH 7.0
# Source text: The binding of geldanamycin or 17-allylamino-17-demethoxygeldanamycin (17AAG) to HSP90 and competitive inhibition thereof can be utilised in order to determine the inhibitory activity of the compounds according to the invention (Carreras et al. 2003, Chiosis et al. 2002).
# In the specific case, a radioligand filter binding test is used. The radioligand used here is tritium-labelled 17-allylaminogeldanamycin, [3H]17AAG. This filter binding test allows a targeted search for inhibitors which interfere with the ATP binding site.
# Recombinant human HSP90α(E. coli expressed, 95% purity); [3H]17AAG (17-allylaminogeldanamycin, [allylamino-2,3-^3H. Specific activity: 1.11×10^12 Bq/mmol (Moravek, MT-1717); HEPES filter buffer (50 mM HEPES, pH 7.0, 5 mM MgCl2, BSA 0.01%) Multiscreen FB (1 μm) filter plate (Millipore, MAFBNOB 50).
# The 96-well microtitre filter plates are firstly irrigated and coated with 0.1% of polyethylenimine.
# The test is carried out under the following conditions: • Reaction temperature 22° C. • Reaction time: 30 min., shaking at 800 rpm • Test volume: 50 μl • Final concentrations: • 50 mM HEPES HCl, pH 7.0, 5 mM MgCl2, 0.01% (w/v) BSA • HSP90:1.5 μg/assay • [3H]17AAG: 0.08 μM.
# At the end of the reaction, the supernatant in the filter plate is removed by suction with the aid of a vacuum manifold (Multiscreen Separation System, Millipore), and the filter is washed twice.
# The filter plates are then measured in a beta counter (Microbeta, Wallac) with scintillator (Microscint 20, Packard).
# “% of control” is determined from the “counts per minutes” values and the IC-50 value of a compound is calculated therefrom.
row,SMILES,IC50 [nM]
1,"COc1ccc(-c2nc(N)nc3ccc(Cl)cc23)cc1OCc1ccc(C(=O)O)cc1 [Compound A113, 2-amino-6-chloro-4-[3-(4-carboxybenzyloxy)-4-methoxyphenyl]quinazoline sodium salt]",370
2,"COc1ccc(-c2nc(N)nc3ccc(Cl)cc23)cc1OCc1ccc(-c2nnn[nH]2)cc1 [Compound A138, 2-amino-6-chloro-4-{3-[4-(1H-tetrazol-5-yl)benzyloxy]-4-methoxyphenyl}quinazoline]",540
3,"COc1ccc(-c2nc(N)nc3ccc(Cl)cc23)cc1OC [Compound A134, 2-amino-6-chloro-4-(3,4-dimethoxyphenyl)quinazoline]",550
4,"COc1ccc(-c2nc(N)nc3ccc(Cl)cc23)cc1OCc1cccc(C(=O)O)c1 [Compound A112, 2-amino-6-chloro-4-[3-(3-carboxybenzyloxy)-4-methoxyphenyl]quinazoline sodium salt]",470
5,"COc1ccc(-c2nc(N)nc3ccc(Cl)cc23)cc1OCCCC(=O)O [Compound A111, 2-amino-6-chloro-4-[3-(3-carboxypropoxy)-4-methoxyphenyl]quinazoline sodium salt]",580
6,"COC(=O)c1cccc(COc2cc(-c3nc(N)nc4ccc(Cl)cc34)ccc2OC)c1 [Compound A108, 2-amino-6-chloro-4-[3-(3-methoxycarbonylbenzyloxy)-4-methoxyphenyl]quinazoline]",950
7,"COC(=O)c1ccc(COc2cc(-c3nc(N)nc4ccc(Cl)cc34)ccc2OC)cc1 [Compound A109, 2-amino-6-chloro-4-[3-(4-methoxycarbonylbenzyloxy)-4-methoxyphenyl]quinazoline]",800
